Data as given in ChEMBL document CHEMBL2086352, “Thiazoline peptides and a tris-phenethyl urea from Didemnum molle with anti-HIV activity” (J Nat Prod, 2012).
Blank lines part the entries; values can stand above or below the compound they belong to. Activity calls are given as the source filed them. No cut-off for these calls is given here. Starred links: 1 amine or outer side, 2 acyl side, 3 side chain; linkers in the order of their positions; H or OH if unused. Non-standard residues stand in square brackets, D forms with d. Residues, ends and D or L forms follow the SMILES beside them. *: point of attachment. X1 = O=C([C@H]1CSC([C@@H](Cc2ccccc2)N[*:1])=N1)[*:2]; Allyl(1,1-Me2) = C=CC(C)(C)*

Assays:
[1] = tested on: Human immunodeficiency virus; assay: Antiviral activity against HIV infected in 1A2 cells assessed as cytoprotective activity at 78 uM after 96 hrs by MTT assay; format: functional, organism-based
[2] = target: Human immunodeficiency virus type 1 integrase (Human immunodeficiency virus 1) (UniProt Q7ZJM1); assay: Inhibition of HIV-1 integrase at 100 ug/ml by colorimetry
[3] = tested on: Human immunodeficiency virus; assay: Antiviral activity against HIV infected in 1A2 cells assessed as cytoprotective activity after 96 hrs by MTT assay; format: functional, organism-based; settings: Human immunodeficiency virus 1, 1A2, 96 h
[4] = target: Human immunodeficiency virus type 1 integrase (Human immunodeficiency virus 1, UniProt Q7ZJM1); assay: Inhibition of HIV-1 integrase by colorimetry
Sequence of Human immunodeficiency virus type 1 integrase (Q7ZJM1 whole entry): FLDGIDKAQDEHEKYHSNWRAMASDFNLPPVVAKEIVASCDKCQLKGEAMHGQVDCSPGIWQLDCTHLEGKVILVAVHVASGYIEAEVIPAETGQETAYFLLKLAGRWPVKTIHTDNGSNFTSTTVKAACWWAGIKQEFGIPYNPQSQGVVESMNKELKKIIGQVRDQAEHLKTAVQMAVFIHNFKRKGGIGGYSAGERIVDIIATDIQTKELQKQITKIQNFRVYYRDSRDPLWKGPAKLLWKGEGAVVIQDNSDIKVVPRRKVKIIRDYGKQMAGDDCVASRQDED

Sequence of Human immunodeficiency virus type 1 integrase (Human immunodeficiency virus 1) (Q7ZJM1 as listed by the source): as the sequence (Q7ZJM1 whole entry) above

SMILES: C=CC(C)(C)O[C@H](C)[C@@H]1NC(=O)[C@H]2CSC(=N2)[C@@H](Cc2ccccc2)NC(=O)[C@@H]2CCCN2C(=O)[C@H](CO)NC(=O)[C@H](CC(C)C)NC1=O (cyclo(LSP[X1]T(Allyl(1,1-Me2))))
Activity [1]: inactive
inhibition [2]: inactive

SMILES: CC[C@H](C)[C@@H]1NC(=O)[C@H]2CSC(=N2)[C@@H](Cc2ccccc2)NC(=O)[C@@H]2CCCN2C(=O)[C@@H]2CCCN2C(=O)[C@H](C(C)C)NC1=O [MOLLAMIDE F] (cyclo(IVPP[X1]))
IC50 [3]: 78 µM
IC50 [4]: 39 µM

inhibition [2]: inactive
SMILES: O=C(NCCc1ccccc1)NCCc1ccccc1C(=O)NCCc1ccccc1 [MOLLEUREA A]
IC50 [3]: 60 µM

SMILES: [N-]=[N+]=[N-] [SODIUM AZIDE]
IC50 [4]: 46000 µM
